Assays:
serum Ca⁺⁺ [1] = assay: Rat model of humoral hypercalcemia of malignancy (transplanted Rice 500 Leydig cell tumor), serum Ca++; format: in vivo, male Fisher rats; details: for Serum mg % Ca++: 40 mg/kg/day intubated once a day from two days after tumor transplantation
Source text: A rat model that closely mimics the human syndrome of Humoral Hypercalcemia of Malignancy was described by Insogna et al, Endocrinology 114, 888-896 (1984). In this model a Rice 500 Leydig cell tumor is transplated in male Fisher rats. […] These findings exactly parallel those in human humoral hypercalcemia of malignancy. The same model was used to study the effect of the formula I compound on lowering serum Ca⁺⁺ levels in rodents with established malignant hypercalcemia. Rats (150-200 gr) were intubated once a day with three different doses of the formula I compound including 10 mg, 25 mg and 80 mg/kg/day as shown in Figure 1. Control animals received no compound. The compound was given on days 10-15 after tumor transplantation when all animals were hypercalcemic. In experiment No. 2 (Table 1), rodents were intubated once a day with 40 mg/kg, of the formula I compound two days after tumor transplantation. These studies were utilized to examine whether the formula I compound could prevent tumor-induced hypercalcemia in these animals which generally appears 8-10 days after transplantation.

serum Ca⁺⁺ [2] = assay: Rat model of secondary hyperparathyroidism (Ca++ deficient diet), serum Ca++; format: in vivo, Rats; details: intubated
Source text: In this model rats are fed a Ca⁺⁺ deficient diet, causing an enhanced release of parathyroid hormone (PTH) and secondary hyperparathyroidism. At this stage most of the serum Ca⁺⁺ is mobilized from bone. To maintain serum calcium levels within the normal range, bone resorption is stimulated by the released parathyroid hormone. This model was used to study the effect of Formula I compound on rats with secondary hyperparathyroidism. Rats (150-200 gr) were kept on a Ca⁺⁺ deficient diet for 7 days. Different doses of Formula I compound were intubated into animals (n=10) and serum Ca⁺⁺ was monitored at 0, 4, 8, 12 and 24 hours.

papain = biological target: T1, papain (Carica papaya, UniProt P00784); details: with the disappearance of the thiol group of papain; cited from earlier work
T1 sequence (P00784 134-345): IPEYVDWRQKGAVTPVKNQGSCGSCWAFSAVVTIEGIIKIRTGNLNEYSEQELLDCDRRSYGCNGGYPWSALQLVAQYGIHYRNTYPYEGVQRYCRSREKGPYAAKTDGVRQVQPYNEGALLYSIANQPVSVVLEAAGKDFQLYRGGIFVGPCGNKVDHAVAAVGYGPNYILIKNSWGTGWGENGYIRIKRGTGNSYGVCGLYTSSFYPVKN

cathepsin B = cathepsin B (Homo sapiens, UniProt P07858); details: cited from earlier work
cathepsin H = biological target: T2, cathepsin H (Homo sapiens, UniProt P09668); details: cited from earlier work
T2 sequence (P09668 98-335): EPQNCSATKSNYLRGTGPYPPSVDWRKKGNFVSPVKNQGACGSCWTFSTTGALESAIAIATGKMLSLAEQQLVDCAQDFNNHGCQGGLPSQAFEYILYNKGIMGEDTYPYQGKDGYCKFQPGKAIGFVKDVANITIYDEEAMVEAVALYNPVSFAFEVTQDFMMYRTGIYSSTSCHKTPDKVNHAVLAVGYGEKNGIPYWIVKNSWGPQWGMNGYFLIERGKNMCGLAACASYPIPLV

serine proteinases = details: cited from earlier work
metalloproteinases = details: cited from earlier work

SMILES: CC(C)C[C@H](NC(=O)[C@H]1O[C@@H]1C(=O)O)C(=O)NCCCCN=C(N)N [Formula I compound, epoxysuccinyl-leucylamido (4-guanidino)butane]
- Serum mg % Ca++ (serum Ca⁺⁺ [1]; day 2): 10.5 ± 0.3 mg %
- Serum mg % Ca++ (serum Ca⁺⁺ [1]; day 4): 10.1 ± 0.4 mg %
- Serum mg % Ca++ (serum Ca⁺⁺ [1]; day 6): 10.2 ± 0.2 mg %
- Serum mg % Ca++ (serum Ca⁺⁺ [1]; day 8): 10.3 ± 0.3 mg %
- Serum mg % Ca++ (serum Ca⁺⁺ [1]; day 10): 9.8 ± 0.4 mg %
- Serum mg % Ca++ (serum Ca⁺⁺ [1]; day 11): 10.3 ± 0.4 mg %
- Serum mg % Ca++ (serum Ca⁺⁺ [1]; day 12): 10.1 ± 0.3 mg %
- Serum mg % Ca++ (serum Ca⁺⁺ [1]; day 13): 10.4 ± 0.4 mg %
- Serum mg % Ca++ (serum Ca⁺⁺ [1]; day 14): 10.5 ± 0.3 mg %
- Serum mg % Ca++ (serum Ca⁺⁺ [1]; day 15): 10.6 ± 0.4 mg %
- tumor induced hypercalcemia (established) (serum Ca⁺⁺ [1]; given orally, 10 mg, 25 mg and 80 mg/kg/day on days 10-15 after tumor transplantation (Figure 1)): block
- tumor induced hypercalcemia (prevention) (serum Ca⁺⁺ [1]; given orally, 40 mg/kg once a day from two days after tumor transplantation (Table I)): can prevent
- Serum mg % Ca++ (serum Ca⁺⁺ [2]; 10 mg, 0 hours): 11.5 ± 0.5 mg %
- Serum mg % Ca++ (serum Ca⁺⁺ [2]; 10 mg, 4 hours): 10.6 ± 0.4 mg %
- Serum mg % Ca++ (serum Ca⁺⁺ [2]; 10 mg, 8 hours): 10.4 ± 0.5 mg %
- Serum mg % Ca++ (serum Ca⁺⁺ [2]; 10 mg, 12 hours): 10.2 ± 0.4 mg %
- Serum mg % Ca++ (serum Ca⁺⁺ [2]; 10 mg, 24 hours): 11.5 ± 0.6 mg %
- Serum mg % Ca++ (serum Ca⁺⁺ [2]; 20 mg, 0 hours): 11.3 ± 0.4 mg %
- Serum mg % Ca++ (serum Ca⁺⁺ [2]; 20 mg, 4 hours): 10.2 ± 0.3 mg %
- Serum mg % Ca++ (serum Ca⁺⁺ [2]; 20 mg, 8 hours): 9.7 ± 0.4 mg %
- Serum mg % Ca++ (serum Ca⁺⁺ [2]; 20 mg, 12 hours): 9.5 ± 0.3 mg %
- Serum mg % Ca++ (serum Ca⁺⁺ [2]; 20 mg, 24 hours): 12.0 ± 0.3 mg %
- Serum mg % Ca++ (serum Ca⁺⁺ [2]; 60 mg, 0 hours): 11.7 ± 0.6 mg %
- Serum mg % Ca++ (serum Ca⁺⁺ [2]; 60 mg, 4 hours): 9.8 ± 0.4 mg %
- Serum mg % Ca++ (serum Ca⁺⁺ [2]; 60 mg, 8 hours): 9.5 ± 0.3 mg %
- Serum mg % Ca++ (serum Ca⁺⁺ [2]; 60 mg, 12 hours): 8.9 ± 0.4 mg %
- Serum mg % Ca++ (serum Ca⁺⁺ [2]; 60 mg, 24 hours): 12.7 ± 0.4 mg %
- drop of serum Ca⁺⁺ (serum Ca⁺⁺ [2]; most effective dose 40 mg/kg, in 12 hours): 28.8%
- inhibition of papain (papain): inhibit
- inhibition of cathepsin B (cathepsin B): inhibit
- inhibition of cathepsin H (cathepsin H): inhibit
- effect on serine proteinases (serine proteinases): unaffected
- effect on metalloproteinases (metalloproteinases): unaffected
